# Columns and labels:
# Format in all cases: cell-based
# [1] = test system: murine melanoma cell line B16F10; test: Growth inhibition assay (MTT), B16F10; conditions: Table VI, 6 days incubation
# Procedure: (§1) As another example of evaluation of cytotoxicity, cancer cell lines were also used for a growth inhibition assay. The human colon cancer cell lines SW 480 and HT 29 and the murine melanoma cell line B16F10 were used. […] After confluent growth, the cells were trypsinated and resuspended in RPMI plus 10% FCS to a cell concentration of 50000 cells per ml in case of colon cancer cell lines and 20000 in case of B16F10. 100 μl of this cell suspension were transferred in each well of a 96 well microtiter plate and incubated for 1 day at 37° C. in a CO2-incubator. Subsequently, further 100 μl RPMI medium and 1 μl of a DMSO solution, containing the artemisinin derivatives were added. The growth inhibition was estimated after 6 days incubation at 36° C. using the MTT assay.
# (§2) 25 μl MTT solution (3-(4,5-dimethylthiazol-2-yl)-2,5-diphenyltetrazolium-bromid) of a starting concentration of 5 mg/ml H2O were added and incubated at 37° C. for 5 h. Subsequently, 100 μl iso-propanol per well were added. After 15 min incubation 100 μl H2O were added. After 30 min shaking, the extinction was measured at 595 nm using a ELISA-Multiplate Reader.
# [2] = test system: human colon cancer cell line SW 480; test: Growth inhibition assay (MTT), SW 480; conditions: Table VI, 6 days incubation
# Procedure: as §1, §2
# [3] = test system: human colon cancer cell line HT 29; test: Growth inhibition assay (MTT), HT 29; conditions: Table VI, 6 days incubation
# Procedure: as §1, §2
# [4] = test system: Rat 6 subclone of the immortalized F2408 embryo cell line (R6); test: Screening for cytotoxicity, cell count by Coulter Counter, R6 cells; conditions: for LD50 (Day 3) R6: day 3 after addition; for LD50 (Day 6) R6: day 6 after addition
# Procedure: (§3) Compounds of the invention were screened against Rat 6 subclone of the immortalized F2408 embryo cell line, and Rat 6 (R6T24) cells transfected and transformed by a c-H-ras oncogene. The screening involved placing the R6 and R6T24 cell lines plated at 10^3 cells per well into a 12-well microtiter culture plate for 24 hours. The compounds were added at final concentrations from 0.1-100 μM, and cells were trypsized and counted by Coulter Counter at day 3 and day 6 after the addition. Untreated cells were assigned a survival value of 100%.
# [5] = test system: Rat 6 (R6T24) cells transfected and transformed by a c-H-ras oncogene; test: Screening for cytotoxicity, cell count by Coulter Counter, R6T24 cells; conditions: R6T24 cell line; for LD50 (Day 3) R6T24: day 3 after addition; for LD50 (Day 6) R6T24: day 6 after addition
# Procedure: as §3
Compound,LD50 B16F18 [1],LD50 SW 480 [2],LD50 HT 29 [3],LD50 (Day 3) R6 ([4]; Table V),LD50 (Day 6) R6 ([4]; Table V),LD50 (Day 3) R6 ([4]; Table VA),LD50 (Day 6) R6 ([4]; Table VA),LD50 (Day 3) R6T24 ([5]; Table V),LD50 (Day 6) R6T24 ([5]; Table V),LD50 (Day 3) R6T24 ([5]; Table VA),LD50 (Day 6) R6T24 ([5]; Table VA)
10α and β-[(2′-naphthylmethyl)oxy]dihydroartemisinin [Example 13β],400 nM,300 nM,600 nM,–,–,–,–,–,–,–,–
"CC1CCC2[C@@H](C)C(=O)N(Cc3ccccc3)C3O[C@]4(C)CCC1C23O4 (some centres unmarked) [D, reference compound]",–,–,–,>50.00 µM,>50.00 µM,>50 µM,>50 µM,>50.00 µM,>50.00 µM,>50 µM,>50 µM
C[C@@H]1CC[C@H]2[C@@H](C)C(Nc3ccc(F)cc3)O[C@@H]3O[C@@]4(C)CC[C@@H]1[C@]32OO4 (some centres unmarked) [Example 31],–,–,–,0.34 µM,0.27 µM,0.34 µM,0.27 µM,0.23 µM,0.14 µM,0.23 µM,0.14 µM
COc1cc(OC)c(C2O[C@@H]3O[C@@]4(C)CC[C@H]5[C@H](C)CC[C@@H]([C@H]2C)[C@@]35OO4)c(OC)c1 (some centres unmarked) [Example 59],1500 nM,1500 nM,1500 nM,–,–,–,–,–,–,–,–
COc1ccccc1C1O[C@@H]2O[C@@]3(C)CC[C@H]4[C@H](C)CC[C@@H]([C@H]1C)[C@@]24OO3 (some centres unmarked) [Example 29],>10000 nM,>10000 nM,>10000 nM,–,–,–,–,–,–,–,–
CC1CCC2C(C)C(OCc3cccc4c3ccc3ccccc34)OC3OC4(C)CCC1C32OO4 (centres unmarked) [Example 82],–,–,–,–,–,0.12 µM,0.12 µM,–,–,0.05 µM,0.06 µM
C[C@@H]1CC[C@H]2[C@@H](C)C(Nc3ccc(Br)cc3)O[C@@H]3O[C@@]4(C)CC[C@@H]1[C@]32OO4 (some centres unmarked) [Example 33],200 nM,60 nM,500 nM,–,–,–,–,–,–,–,–
C[C@@H]1CC[C@H]2[C@@H](C)C(NCc3ccccc3)O[C@@H]3O[C@@]4(C)CC[C@@H]1[C@]32OO4 (some centres unmarked) [Example 36],50 nM,60 nM,400 nM,–,–,–,–,–,–,–,–
Cc1cc(C)c(C2O[C@@H]3O[C@@]4(C)CC[C@H]5[C@H](C)CC[C@@H]([C@H]2C)[C@@]35OO4)cc1C (some centres unmarked) [Example 61],250 nM,150 nM,300 nM,–,–,–,–,–,–,–,–
C[C@@H]1CC[C@H]2[C@@H](C)C(c3ccc4ccccc4c3)O[C@@H]3O[C@@]4(C)CC[C@@H]1[C@]32OO4 (some centres unmarked) [Example 28],300 nM,150 nM,300 nM,–,–,–,–,–,–,–,–
COc1cc(OC)c(C2OC3OC4(C)CCC5C(C)CCC(C2C)C35OO4)c(OC)c1 (mixture of isomers) [Example 27],–,–,–,0.57 µM,1.10 µM,0.57 µM,1.10 µM,0.67 µM,0.26 µM,0.67 µM,0.26 µM
C[C@@H]1CC[C@H]2[C@@H](C)C(OC(=O)c3c4ccccc4nc4ccccc34)O[C@@H]3O[C@@]4(C)CC[C@@H]1[C@]32OO4 (some centres unmarked) [Example 65],–,–,–,2.73 µM,2.52 µM,–,–,3.21 µM,1.60 µM,–,–
"CC1CCC2C(CN(Cc3ccccc3)Cc3ccccc3)C(=O)OC3OC4(C)CCC1C32OO4 (centres unmarked) [Example 17, 9-(N,N-dibenzylaminomethyl)artemisinin]",–,–,–,1.57 µM,2.58 µM,–,–,1.81 µM,0.54 µM,–,–
"CC1CC[C@H]2[C@@H](C)C(=O)NC3O[C@]4(C)CCC1C32OO4 (some centres unmarked) [Example 14, 11-azaartemisinin]",–,–,–,>50.00 µM,1.22 µM,>50 µM,1.22 µM,0.18 µM,0.09 µM,0.18 µM,0.09 µM
C[C@@H]1CC[C@H]2[C@@H](C)C(Nc3ccc(I)cc3)O[C@@H]3O[C@@]4(C)CC[C@@H]1[C@]32OO4 (some centres unmarked) [Example 34],150 nM,100 nM,500 nM,–,–,–,–,–,–,–,–
C[C@@H]1CC[C@H]2[C@@H](C)C(N3CCN(C)CC3)O[C@@H]3O[C@@]4(C)CC[C@@H]1[C@]32OO4 (some centres unmarked) [Example 51],–,–,–,–,–,0.33 µM,0.12 µM,–,–,0.33 µM,0.11 µM
CC1CCC2C(C)C(OC(=O)c3ccc4c(c3)C(=O)c3ccccc3C4=O)OC3OC4(C)CCC1C32OO4 (centres unmarked) [Example 66],–,–,–,0.34 µM,3.60 µM,0.34 µM,3.6 µM,0.32 µM,0.32 µM,0.32 µM,0.32 µM
"CC1CCC2C(C)C(F)OC3OC4(C)CCC1C32OO4 (stereo not drawn) [Example 1, 10β-fluoro-10-deoxodihydroartemisinin]",–,–,–,1.18 µM,1.63 µM,1.28 µM,1.62 µM,1.93 µM,0.61 µM,1.93 µM,0.61 µM
C[C@@H]1CC[C@H]2[C@@H](C)C(=O)N(Cc3cccc(F)c3)[C@@H]3O[C@@]4(C)CC[C@@H]1[C@@]23OO4 [Example 87],–,–,–,>50.00 µM,17.5 µM,–,–,6.14 µM,1.07 µM,–,–
CC1CCC2C(C)C(OCc3ccc(F)cc3)OC3OC4(C)CCC1C32OO4 (centres unmarked) [Example 79],200 nM,200 nM,1500 nM,–,–,–,–,–,–,–,–
"CC1CCC2C(C)C(Oc3ccnc4cc(C(F)(F)F)ccc34)OC3OC4(C)CCC1C32OO4 (stereo not drawn) [Example 12, 10β-[4′-(7′-trifluoromethyl-quinolinoxy)]dihydroartemisinin]",300 nM,150 nM,2000 nM,–,–,–,–,–,–,–,–
"CC[C@@]1(O)C(=O)OCc2c1cc1n(c2=O)Cc2cc3ccccc3nc2-1 [CAMPTOTHECIN, reference compound]",30 nM,9 nM,4 nM,–,–,–,–,–,–,–,–
"CO[C@H]1O[C@@H]2O[C@@]3(C)CC[C@H]4[C@H](C)CC[C@@H]([C@H]1C)[C@@]24OO3 [Artemether, artemether, reference compound]",–,–,–,>100.00 µM,1.0 µM,>100 µM,0.6 µM,>100.00 µM,1.8 µM,>100 µM,0.71 µM
"C[C@H]1[C@H](OC(=O)CCC(=O)O)O[C@@H]2O[C@@]3(C)CC[C@H]4[C@H](C)CC[C@@H]1[C@@]24OO3 [Artesunate, artesunate, reference compound]",–,–,–,2.80 µM,2.06 µM,2.80 µM,2.08 µM,1.77 µM,1.04 µM,1.77 µM,1.04 µM
"CCOC(=O)CCC1C(=O)OC2OC3(C)CCC4C(C)CCC1C24OO3 (centres unmarked) [Example 19, 9-[2-(ethoxycarbonyl)ethyl]artemisinin]",–,–,–,52.00 µM,59.00 µM,–,–,28.12 µM,24.95 µM,–,–
"CC1CCC2[C@@H](C)C(=O)OC3O[C@]4(C)CCC1C32OO4 (some centres unmarked) [Artemisinin, artemisinin, reference compound]",–,–,–,>100.00 µM,4.08 µM,>100.00 µM,4.08 µM,3.09 µM,1.75 µM,3.49 µM,1.75 µM
C[C@@H]1CC[C@H]2[C@@H](C)C(=O)N(Cc3ccccc3)[C@@H]3O[C@@]4(C)CC[C@@H]1[C@@]23OO4 [Example 88],–,–,–,46.67 µM,18.49 µM,47.0 µM,18.49 µM,10.45 µM,5.24 µM,10.45 µM,5.24 µM

# Source: patent US6649647B1, “Trioxane derivatives” (priority 1998, dated 2003)
